Source: patent US10131652B2, “Pyrimidinyloxy benzene derivatives as herbicides” (E. I. DU PONT DE NEMOURS AND COMPANY, priority 2014, dated 2018)
Where two headings read alike, the source gives them in different places.

Assays:
Type in all cases: in vivo
corn (Zea mays) [1] = assay: Test B pre-/postemergence plant response; details: for Corn plant response rating (crop injury, 0 = no effect, 100 = complete kill) at 125 g/ha / Corn plant response rating (crop injury, 0 = no effect, 100 = complete kill) at 500 g/ha: Zea mays, 240 h
Procedure, shortened: (§1)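 Visual injury rating, 0 (no effect) to 100 (complete control), vs untreated controls after ~10 d greenhouse. Pre: directed soil spray after planting in loam/sand. Post: plants 2–10 cm, 1–2 leaf stage. Compound in non-phytotoxic solvent plus surfactant.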

[2] = test system: giant foxtail (Setaria faberii); assay: Test B pre-/postemergence plant response; details: for pest or weed control at 125 g/ha / pest or weed control at 500 g/ha: Setaria faberi, 240 h, read-out: Plant response rating, Foxtail, Giant
Procedure, shortened: as §1

[3] = test system: barnyardgrass (Echinochloa crus-galli); assay: Test B pre-/postemergence plant response; details: for pest or weed control at 125 g/ha / pest or weed control at 500 g/ha: Echinochloa crus-galli, 240 h, read-out: Plant response rating, Barnyardgrass
Procedure, shortened: as §1

[4] = test system: pigweed (Amaranthus retroflexus); assay: Test B pre-/postemergence plant response; details: for pest or weed control at 125 g/ha / pest or weed control at 500 g/ha: Amaranthus retroflexus, 240 h, read-out: Plant response rating, Pigweed
Procedure, shortened: as §1

[5] = test system: wheat (Triticum aestivum); assay: Test B pre-/postemergence plant response; details: for plant injury at 125 g/ha / plant injury at 500 g/ha: Triticum aestivum, 240 h, read-out: Plant response rating, Wheat
Procedure, shortened: as §1

corn (Zea mays) [6] = assay: Test D pre-/postemergence plant response; details: Postemergence; for Corn plant response rating: scale 0 to 100 (0 no effect, 100 complete control); for Plant response rating, Corn: scale 0 to 100, 0 no effect, 100 complete control
From the text: (§2) Seeds of plant species selected from blackgrass (Alopecurus myosuroides), Italian ryegrass (Lolium multiflorum), winter wheat (Triticum aestivum), galium (catchweed bedstraw, Galium aparine), corn (Zea mays), large (Lg) crabgrass (Digitaria sanguinalis), giant foxtail (Setaria faberii), johnsongrass (Sorghum halepense), lambsquarters (Chenopodium album), morningglory (Ipomoea coccinea), yellow nutsedge (Cyperus esculentus), pigweed (Amaranthus retroflexus), ragweed (common ragweed, Ambrosia elatior), soybean (Glycine max), bamyardgrass (Echinochloa crus-galli), oilseed rape (Brassica napus), waterhemp (common waterhemp, Amaranthus rudis), and velvetleaf (Abutilon theophrasti) were planted into a blend of loam soil and sand and treated preemergence with test chemicals formulated in a non-phytotoxic solvent mixture which included a surfactant. At the same time, plants selected from these crop and weed species and also kochia (Kochia scoparia), wild oat (Avena fatua), and chickweed (common chickweed, Stellaria media) were planted in pots containing Redi-Earth® planting medium (Scotts Company, 14111 Scottslawn Road, Marysville, Ohio 43041) comprising spaghnum peat moss, vermiculite, wetting agent and starter nutrients and treated with postemergence applications of test chemicals formulated in the same manner. Plants ranged in height from 2 to 18 cm (1- to 4-leaf stage) for postemergence treatments. Treated plants and controls were maintained in a greenhouse for 13 to 15 days, after which time all species were compared to controls and visually evaluated. Plant response ratings, summarized in Table D, are based on a scale of 0 to 100 where 0 is no effect and 100 is complete control. A dash (-) response means no test result.

soybean (Glycine max) = assay: Test D pre-/postemergence plant response; details: Postemergence; for Soybean plant response rating: scale 0 to 100 (0 no effect, 100 complete control); for Plant response rating, Soybean: scale 0 to 100, 0 no effect, 100 complete control
From the text: as §2

[7] = test system: morningglory (Ipomoea coccinea); assay: Test D pre-/postemergence plant response; details: Postemergence; for Morningglory plant response rating: scale 0 to 100 (0 no effect, 100 complete control); for Plant response rating, Morningglory: scale 0 to 100, 0 no effect, 100 complete control
From the text: as §2

[8] = test system: ragweed (common ragweed, Ambrosia elatior); assay: Test D pre-/postemergence plant response; details: Postemergence; for Ragweed plant response rating: scale 0 to 100 (0 no effect, 100 complete control); for Plant response rating, Ragweed: scale 0 to 100, 0 no effect, 100 complete control
From the text: as §2

[9] = test system: waterhemp (common waterhemp, Amaranthus rudis); assay: Test D pre-/postemergence plant response; details: Postemergence; for Waterhemp plant response rating: scale 0 to 100 (0 no effect, 100 complete control); for Plant response rating, Waterhemp: scale 0 to 100, 0 no effect, 100 complete control
From the text: as §2

[10] = test system: winter wheat (Triticum aestivum); assay: Test D pre-/postemergence plant response; details: Postemergence; for Wheat plant response rating: scale 0 to 100 (0 no effect, 100 complete control); for Plant response rating, Wheat: scale 0 to 100, 0 no effect, 100 complete control
From the text: as §2

[11] = test system: galium (catchweed bedstraw, Galium aparine); assay: Test D pre-/postemergence plant response; details: Postemergence; for Galium plant response rating: scale 0 to 100 (0 no effect, 100 complete control); for Plant response rating, Galium: scale 0 to 100, 0 no effect, 100 complete control
From the text: as §2

[12] = test system: Italian ryegrass (Lolium multiflorum); assay: Test D pre-/postemergence plant response; details: Postemergence; for Ryegrass, Italian plant response rating: scale 0 to 100 (0 no effect, 100 complete control); for Plant response rating, Ryegrass, Italian: scale 0 to 100, 0 no effect, 100 complete control
From the text: as §2

[13] = test system: lambsquarters (Chenopodium album); assay: Test D pre-/postemergence plant response; details: Postemergence; for Lambsquarters plant response rating: scale 0 to 100 (0 no effect, 100 complete control); for Plant response rating, Lambsquarters: scale 0 to 100, 0 no effect, 100 complete control
From the text: as §2

[14] = test system: large (Lg) crabgrass (Digitaria sanguinalis); assay: Test D pre-/postemergence plant response; details: Postemergence; for Crabgrass, Large plant response rating: scale 0 to 100 (0 no effect, 100 complete control); for Plant response rating, Crabgrass, Large: scale 0 to 100, 0 no effect, 100 complete control
From the text: as §2

[15] = post-emergence, 125 g ai/ha, postemergence, 0 to 100 scale, 0 no effect, 100 complete control
[16] = post-emergence, Postemergence, 500 g ai/ha, 0 to 100 scale (0 no effect, 100 complete control)
[17] = pre-emergence, Preemergence, 125 g ai/ha, 0 to 100 scale where 0 is no effect and 100 is complete control
[18] = pre-emergence, Preemergence, 500 g ai/ha, 0 to 100 scale where 0 is no effect and 100 is complete control
[19] = 125 g ai/ha, postemergence, 0 to 100 scale, 0 no effect, 100 complete control
[20] = Postemergence, 500 g ai/ha, 0 to 100 scale (0 no effect, 100 complete control)
[21] = Preemergence, 125 g ai/ha, 0 to 100 scale where 0 is no effect and 100 is complete control
[22] = Preemergence, 500 g ai/ha, 0 to 100 scale where 0 is no effect and 100 is complete control

FC(F)(F)Oc1ccc(-c2ccccc2Oc2ncc(Cl)cn2)cc1 [Compound 42, 5-chloro-2-[[4′-(trifluoromethoxy)[1,1′-biphenyl]-2-yl]oxy]pyrimidine]
Corn plant response rating (crop injury, 0 = no effect, 100 = complete kill) at 125 g/ha (corn (Zea mays) [1]; [15]): 20%
Corn plant response rating (crop injury, 0 = no effect, 100 = complete kill) at 500 g/ha (corn (Zea mays) [1]; [16]): 20%
Corn plant response rating (crop injury, 0 = no effect, 100 = complete kill) at 125 g/ha (corn (Zea mays) [1]; [17]): 0%
Corn plant response rating (crop injury, 0 = no effect, 100 = complete kill) at 500 g/ha (corn (Zea mays) [1]; [18]): 0%
pest or weed control at 125 g/ha [2, 15]: 10%
pest or weed control at 500 g/ha [2, 16]: 30%
pest or weed control at 125 g/ha [2, 17]: 70%
pest or weed control at 500 g/ha [2, 18]: 100%
pest or weed control at 125 g/ha [3, 15]: 20%
pest or weed control at 500 g/ha [3, 16]: 30%
pest or weed control at 125 g/ha [3, 17]: 20%
pest or weed control at 500 g/ha [3, 18]: 70%
pest or weed control at 125 g/ha [4, 15]: 60%
pest or weed control at 500 g/ha [4, 16]: 80%
pest or weed control at 125 g/ha [4, 17]: 50%
pest or weed control at 500 g/ha [4, 18]: 90%
plant injury at 125 g/ha [5, 15]: 0%
plant injury at 500 g/ha [5, 16]: 0%
plant injury at 125 g/ha [5, 17]: 0%
plant injury at 500 g/ha [5, 18]: 0%

Cn1nnc(-c2ccccc2Oc2ncc(Br)cn2)n1 [Compound 50]
Corn plant response rating (corn (Zea mays) [6]; 16 g ai/ha): 0
Corn plant response rating (corn (Zea mays) [6]; 31 g ai/ha): 0
Plant response rating, Corn (corn (Zea mays) [6]; 62 g ai/ha): 0
Plant response rating, Corn (corn (Zea mays) [6]; 125 g ai/ha): 5
Soybean plant response rating (soybean (Glycine max); 16 g ai/ha): 5
Soybean plant response rating (soybean (Glycine max); 31 g ai/ha): 5
Plant response rating, Soybean (soybean (Glycine max); 62 g ai/ha): 20
Plant response rating, Soybean (soybean (Glycine max); 125 g ai/ha): 40
Morningglory plant response rating ([7]; 16 g ai/ha): 0
Morningglory plant response rating ([7]; 31 g ai/ha): 0
Plant response rating, Morningglory ([7]; 62 g ai/ha): 10
Plant response rating, Morningglory ([7]; 125 g ai/ha): 20
Ragweed plant response rating ([8]; 16 g ai/ha): 5
Ragweed plant response rating ([8]; 31 g ai/ha): 5
Plant response rating, Ragweed ([8]; 62 g ai/ha): 5
Plant response rating, Ragweed ([8]; 125 g ai/ha): 15
Waterhemp plant response rating ([9]; 16 g ai/ha): 0
Waterhemp plant response rating ([9]; 31 g ai/ha): 0
Plant response rating, Waterhemp ([9]; 62 g ai/ha): 0
Plant response rating, Waterhemp ([9]; 125 g ai/ha): 40
Wheat plant response rating ([10]; 16 g ai/ha): 0
Wheat plant response rating ([10]; 31 g ai/ha): 0
Plant response rating, Wheat ([10]; 62 g ai/ha): 5
Plant response rating, Wheat ([10]; 125 g ai/ha): 5
Galium plant response rating ([11]; 16 g ai/ha): 30
Galium plant response rating ([11]; 31 g ai/ha): 15
Plant response rating, Galium ([11]; 62 g ai/ha): 5
Plant response rating, Galium ([11]; 125 g ai/ha): 60
Ryegrass, Italian plant response rating ([12]; 16 g ai/ha): 0
Ryegrass, Italian plant response rating ([12]; 31 g ai/ha): 0
Plant response rating, Ryegrass, Italian ([12]; 62 g ai/ha): 0
Plant response rating, Ryegrass, Italian ([12]; 125 g ai/ha): 0
Lambsquarters plant response rating ([13]; 16 g ai/ha): 0
Lambsquarters plant response rating ([13]; 31 g ai/ha): 5
Plant response rating, Lambsquarters ([13]; 62 g ai/ha): 50
Plant response rating, Lambsquarters ([13]; 125 g ai/ha): 5
Crabgrass, Large plant response rating ([14]; 16 g ai/ha): 0
Crabgrass, Large plant response rating ([14]; 31 g ai/ha): 0
Plant response rating, Crabgrass, Large ([14]; 62 g ai/ha): 0
Plant response rating, Crabgrass, Large ([14]; 125 g ai/ha): 5
Plant response rating, Corn (corn (Zea mays) [1]; [19]): 0
Plant response rating, Corn (corn (Zea mays) [1]; [20]): 0
Plant response rating, Foxtail, Giant [2, 19]: 0
Plant response rating, Foxtail, Giant [2, 20]: 10
Plant response rating, Foxtail, Giant [2, 21]: 0
Plant response rating, Foxtail, Giant [2, 22]: 50
Plant response rating, Barnyardgrass [3, 19]: 0
Plant response rating, Barnyardgrass [3, 20]: 0
Plant response rating, Barnyardgrass [3, 21]: 0
Plant response rating, Barnyardgrass [3, 22]: 10
Plant response rating, Pigweed [4, 19]: 70
Plant response rating, Pigweed [4, 20]: 100
Plant response rating, Pigweed [4, 21]: 60
Plant response rating, Pigweed [4, 22]: 100
Plant response rating, Wheat [5, 19]: 0
Plant response rating, Wheat [5, 20]: 20
